According to patent US7041785B1, “B1-bradykinin receptor antagonists and use thereof” (Université de Sherbrooke, priority 1996, dated 2006):
Non-standard residues stand in square brackets, D forms with d. Residues, ends and D or L forms follow the SMILES beside them. No end group written: not given here. d2Nal = N[C@H](Cc1ccc2ccccc2c1)C(=O)O

Columns and labels:
B2 receptor [1] = molecular target: T1, B2 receptor (Oryctolagus cuniculus, UniProt Q28642); assay: cell-based; conditions: residual agonistic activity at 10 μg/mL in comparison with BK
T1 sequence (Q28642 1-367): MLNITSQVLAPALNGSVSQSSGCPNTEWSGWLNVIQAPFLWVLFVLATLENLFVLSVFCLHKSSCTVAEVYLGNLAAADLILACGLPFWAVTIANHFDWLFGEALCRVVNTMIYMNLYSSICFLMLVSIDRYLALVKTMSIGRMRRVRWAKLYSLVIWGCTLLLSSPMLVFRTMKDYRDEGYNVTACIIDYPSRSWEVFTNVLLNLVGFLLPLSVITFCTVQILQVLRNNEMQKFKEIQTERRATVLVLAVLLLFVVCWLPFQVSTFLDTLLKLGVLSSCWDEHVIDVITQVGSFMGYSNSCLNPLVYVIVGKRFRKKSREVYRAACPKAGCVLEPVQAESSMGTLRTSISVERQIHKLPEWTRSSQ
From the text: (§1) Tissues were taken from New Zealand white rabbits (1.5–2.5 kg) and Dunken Hartley guinea pigs (250–350 g) of either sex, killed by stunning and exsanguination. Umbilical cords were taken from healthy women 22–40 years old after spontaneous delivery at term. The rabbit jugular vein (RbJV), the guinea pig ileum (GPI), two preparations containing B2 receptors, the rabbit aorta (RbA) (B1 receptor) and the human umbilical vein (HUV), a mixed preparation containing both B1 and B2 receptors^10, were used. Helical strips of RbJV treated with 1 μmol/L of captopril to avoid peptide degradation by the angiotensin-converting enzyme (ACE), alias kininase II were prepared according to Gaudreau et al.^11 Helical strips of RbA devoid of endothelium were prepared according to Furchgott and Bhadrakom^12. Longitudinal segments of GPI were prepared with the procedure described by Rang^13. Helical strips of HUV were prepared according to Gobeil et al.^10. The tissues were suspended in 10-ml organ baths containing warm (37EC), oxygenated (95% O2–5% CO2) Krebs solution of the following composition in mmol/L; NaCl: 118.1; KCl: 4.7; CaCl26H2O: 2.5; KH2PO4: 1.2; MgSO47H2O: 1.18; NaHCO3: 25.0 and D-Glucose: 5.5. The RbA and the HUV were stretched with an initial tension of 2 g, whereas the RbJV and the GPI were loaded with 0.5 g. Changes of tension produced by the various agents were measured with Grass isometric transducers (model FT 03C, Grass Instrument Co., Quincy, Mass.). […] Before testing the drugs, the tissues were allowed to equilibrate for 60–120 min during which time the tissues were repeatedly washed and the tension readjusted every 15 min.
(§2) At the beginning of each experiment, a submaximal dose of bradykinin (BK) (9 nmol/L), was applied repeatedly on the RbJV, the GPI or the HUV to ensure that tissues responded with stable contractions. […] A similar protocol was used for the HUV.
(§3) Repeated applications of a singl and double concentration of BK (on RbJV, GPI and HUV) and of desArg^9BK (RbA and HUV) were made in the absence and in presence of the various peptides to evaluate their apparent affinities as antagonists, in terms of pA2 (-log10 of the molar concentration of antagonist that reduces the effect of a double concentration of agonist to that of a single one)^14. The antagonists were applied 10 min before measuring the myotropic effects of either BK (the B2 receptor agonist) or desArg^9BK (the B1 receptor agonist). […] All kinin antagonists were initially applied to tissues at concentration of 10 μg/mL to measure their potential agonistic activities (α^E) in comparison with BK (in the B2 receptor preparations) or desArg^9BK (in the B1 receptor preparations).

B1 receptor = molecular target: T2, B1 receptor (Oryctolagus cuniculus, UniProt P48748); assay: cell-based; conditions: for Rb.A. α^E: residual agonistic activity at 10 μg/mL in comparison with desArg9BK
T2 sequence (P48748 1-352): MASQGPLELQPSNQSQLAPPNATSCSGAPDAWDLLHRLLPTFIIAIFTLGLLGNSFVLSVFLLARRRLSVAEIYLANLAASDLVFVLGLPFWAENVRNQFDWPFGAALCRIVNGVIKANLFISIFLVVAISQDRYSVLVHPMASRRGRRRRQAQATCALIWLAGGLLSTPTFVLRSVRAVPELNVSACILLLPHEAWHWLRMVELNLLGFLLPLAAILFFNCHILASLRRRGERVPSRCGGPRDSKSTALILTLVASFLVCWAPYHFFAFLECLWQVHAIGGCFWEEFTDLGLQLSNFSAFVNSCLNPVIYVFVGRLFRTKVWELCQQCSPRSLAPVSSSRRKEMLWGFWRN
From the text: as §1, §2, §3

human B1 receptor = molecular target: T3, human B1 receptor (Homo sapiens, UniProt P46663); assay: cell-based; conditions: for Human umbilical vein B1 receptor α^E: residual agonistic activity at 10 μg/mL
T3 sequence (P46663 1-353): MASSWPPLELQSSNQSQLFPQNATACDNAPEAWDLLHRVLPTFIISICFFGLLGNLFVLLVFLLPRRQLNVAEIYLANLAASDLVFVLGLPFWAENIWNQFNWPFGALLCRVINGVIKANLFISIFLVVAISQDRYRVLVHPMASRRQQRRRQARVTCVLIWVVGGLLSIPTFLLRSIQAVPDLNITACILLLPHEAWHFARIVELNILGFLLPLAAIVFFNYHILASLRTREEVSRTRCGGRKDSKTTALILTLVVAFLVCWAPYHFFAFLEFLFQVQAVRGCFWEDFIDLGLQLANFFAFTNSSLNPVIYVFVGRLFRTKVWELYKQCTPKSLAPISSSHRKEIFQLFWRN
From the text: as §1, §2, §3

B2 receptor [2] = molecular target: T4, B2 receptor (Cavia porcellus, UniProt O70526); assay: cell-based
T4 sequence (O70526 1-372): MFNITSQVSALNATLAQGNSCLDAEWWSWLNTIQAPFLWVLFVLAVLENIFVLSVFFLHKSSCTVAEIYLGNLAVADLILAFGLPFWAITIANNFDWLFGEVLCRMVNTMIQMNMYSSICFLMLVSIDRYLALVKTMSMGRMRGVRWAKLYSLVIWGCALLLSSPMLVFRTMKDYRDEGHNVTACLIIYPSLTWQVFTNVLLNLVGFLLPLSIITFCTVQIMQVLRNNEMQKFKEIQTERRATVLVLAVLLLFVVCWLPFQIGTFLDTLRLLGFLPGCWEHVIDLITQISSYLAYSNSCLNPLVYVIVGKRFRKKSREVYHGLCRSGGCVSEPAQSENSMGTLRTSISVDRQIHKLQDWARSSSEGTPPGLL
From the text: as §1, §2, §3

B2 receptor [3] = molecular target: T1, B2 receptor; conditions: vs BK; captopril 1 μmol/L; Inactive = no detectable antagonistic effect at ≦ 10 μg/ml
human B2 receptor = molecular target: T5, human B2 receptor (Homo sapiens, UniProt P30411); assay: Human umbilical vein bioassay in presence of Lys(Leu8)desArg9BK, B2 receptor; assay type: cell-based; conditions: vs BK, Lys(Leu8)desArg9BK 1 μmol/L present
T5 construct: Helical strips of HUV were prepared according to Gobeil et al; from tissue; host or cells: human umbilical vein helical strips
T5 sequence (P30411 1-391): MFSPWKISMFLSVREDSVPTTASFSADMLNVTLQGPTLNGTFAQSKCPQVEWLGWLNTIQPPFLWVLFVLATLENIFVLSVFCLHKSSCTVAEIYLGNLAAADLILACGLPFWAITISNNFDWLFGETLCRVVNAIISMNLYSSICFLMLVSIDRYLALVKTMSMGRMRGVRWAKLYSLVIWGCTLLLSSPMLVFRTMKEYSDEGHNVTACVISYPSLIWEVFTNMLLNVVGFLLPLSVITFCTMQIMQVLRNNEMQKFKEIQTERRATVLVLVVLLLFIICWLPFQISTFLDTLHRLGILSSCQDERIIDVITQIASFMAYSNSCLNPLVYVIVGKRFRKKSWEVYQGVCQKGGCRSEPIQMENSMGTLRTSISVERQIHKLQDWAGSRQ
From the text: as §1, §2, §3

[4] = molecular target: T6, angiotensin-converting enzyme (ACE) from rabbit lungs (Oryctolagus cuniculus, UniProt P12822); conditions: after 30 min, same conditions and enzymatic dilution; cited from earlier work
T6 sequence (P12822 34-1310): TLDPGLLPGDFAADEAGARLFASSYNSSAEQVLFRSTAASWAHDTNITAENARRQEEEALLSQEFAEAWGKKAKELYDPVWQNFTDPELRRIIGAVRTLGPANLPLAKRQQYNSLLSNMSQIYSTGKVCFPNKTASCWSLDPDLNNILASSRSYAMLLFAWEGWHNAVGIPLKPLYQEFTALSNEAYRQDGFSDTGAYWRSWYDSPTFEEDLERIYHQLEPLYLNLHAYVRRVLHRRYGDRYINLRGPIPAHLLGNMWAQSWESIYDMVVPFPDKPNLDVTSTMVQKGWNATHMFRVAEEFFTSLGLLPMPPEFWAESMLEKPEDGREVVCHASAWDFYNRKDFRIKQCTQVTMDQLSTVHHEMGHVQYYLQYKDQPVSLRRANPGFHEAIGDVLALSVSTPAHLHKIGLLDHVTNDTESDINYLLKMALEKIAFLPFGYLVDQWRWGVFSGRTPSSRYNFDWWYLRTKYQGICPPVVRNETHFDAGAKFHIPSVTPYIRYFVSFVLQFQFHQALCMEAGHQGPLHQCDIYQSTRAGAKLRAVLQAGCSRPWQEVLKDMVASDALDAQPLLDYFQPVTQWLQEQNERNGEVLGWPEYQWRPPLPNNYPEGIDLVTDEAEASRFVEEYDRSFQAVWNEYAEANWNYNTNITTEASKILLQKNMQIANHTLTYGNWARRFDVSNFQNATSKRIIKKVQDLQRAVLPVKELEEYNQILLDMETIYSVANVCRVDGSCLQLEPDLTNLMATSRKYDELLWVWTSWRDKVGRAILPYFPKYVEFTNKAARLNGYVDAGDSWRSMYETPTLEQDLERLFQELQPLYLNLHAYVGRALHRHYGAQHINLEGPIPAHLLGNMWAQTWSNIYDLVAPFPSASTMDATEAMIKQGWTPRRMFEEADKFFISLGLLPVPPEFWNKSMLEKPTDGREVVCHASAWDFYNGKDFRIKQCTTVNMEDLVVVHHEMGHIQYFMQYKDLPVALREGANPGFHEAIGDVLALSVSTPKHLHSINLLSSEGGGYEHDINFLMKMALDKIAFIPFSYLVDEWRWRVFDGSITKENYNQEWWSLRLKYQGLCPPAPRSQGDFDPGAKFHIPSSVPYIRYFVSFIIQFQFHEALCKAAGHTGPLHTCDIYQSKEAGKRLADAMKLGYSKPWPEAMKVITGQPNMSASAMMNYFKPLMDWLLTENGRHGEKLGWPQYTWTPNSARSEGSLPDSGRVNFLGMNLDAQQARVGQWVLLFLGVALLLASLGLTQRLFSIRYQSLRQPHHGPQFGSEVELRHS

| Compound | Rb.J.V. α^E (B2 receptor [1]) | Rb.A. α^E (B1 receptor) | Human umbilical vein B1 receptor α^E (human B1 receptor) | G.P.I. pA2 (B2 receptor [2]; vs BK, Inactive = no detectable antagonistic effect at ≦ 10 μg/ml, F.ag. full agonist, P.ag. partial agonist) | Rb.J.V. pA2 (B2 receptor [3]) | Human umbilical vein B2 receptor pA2 (human B2 receptor) | Rb.A. pA2 (B1 receptor; apparent affinity as antagonist vs desArg9BK, antagonist applied 10 min before, Inactive = no detectable antagonistic effect at ≦ 10 μg/ml) | Human umbilical vein B1 receptor pA2 (human B1 receptor; vs desArg9BK, HOE140 400 nmol/L present) | G.P.I. α^E (B2 receptor [2]; residual agonistic activity at 10 μg/mL in comparison with BK) | Metabolism of naturally-occurring kinins by ACE [4] |
| --- | --- | --- | --- | --- | --- | --- | --- | --- | --- | --- |
| CC[C@H](C)[C@H](NC(=O)[C@@H](Cc1ccc2ccccc2c1)NC(=O)[C@H](CO)NC(=O)[C@H](Cc1ccccc1)NC(=O)CNC(=O)[C@@H]1CCCN1C(=O)[C@@H]1CCCN1C(=O)[C@H](CCCNC(=N)N)NC(=O)[C@H](CCCCN)NC(C)=O)C(=O)O [Compound 19, AcLys(D-βNal^7, Ile^8)desArg^9BK] (Ac-KRPPGFS[d2Nal]I-OH; C-terminus assumed) | 0.09 | 0 | 0 | P.ag. | Inactive | Inactive |  |  |  |  |
| D-Arg(Hyp^3, D-Hyp^7(trans thiophenyl), Oic^8)desArg^9BK [Compound 34, reference compound] | 0 | 0 | 0 |  | 7.52 ± 0.05 | 5.12 ± 0.20 | 8.27 ± 0.14 | 8.55 ± 0.09 | 0 |  |
| RPPGFSPFR [BK] |  |  |  |  |  |  |  |  |  | fully metabolised |
